# Reference: US20250108070A1, “METHOD FOR REPROGRAMMING CD8+ T CELLS TO ENHANCE THEIR THERAPEUTIC POTENTIAL AND APPLICATIONS THEREOF” (INSTITUT PASTEUR, priority 2022, published 2025)
# Legend:
# human CD8+ T cells = assay: Screening of GSK3 inhibitors: cytokine polyfunctionality (IFN-γ+TNF-α+) of CD8+ T cells after anti-CD3/anti-CD28 stimulation; type: cell-based; settings: FIG. 12A, in words
# Method: (§1) FIG. 12. Screening molecules for reprogramming human CD8^+ T cells Total CD8^+ T cells were purified and treated for 12 hs with titrated doses of GSK3 inhibitors or DMSO vehicle control. After drug washout, cells were stimulated for 48 hs with plate-bound anti-CD3/anti-CD28 antibodies (at 1 mg/mL), followed by flow cytometry analyses. A. Upon stimulation, intracellular cytokine and phospho-protein staining was performed, the latter for the detection of phospho-S6 and phospho-AKT proteins (indicative of activation of mTORC1 and mTORC2 pathways, respectively). The fold change in the frequency of IFN-γ^+TNF-α^+ and pS6^+pAKT^+ cells induced by the treatment with each GSK3 inhibitor, relative to DMSO control, was analyzed. […] B. Fold change in the expression of the indicated markers and memory phenotypes induced by anti-CD3/anti-CD28 antibody stimulation relative to unstimulated cells (at least 3 donors per condition). TCM: T central memory; TEM: T effector memory; TTM: T transitional memory; TTE: T terminal effector; TSCM: T stem cell memory.
# (§2) For reprogramming of CD8^+ T cells followed by polyclonal stimulation, cells were isolated by negative magnetic bead sorting (Stemcell Technologies). For reprogramming of CD8^+ T cells followed by antigen-specific stimulation, PBMC and magnetically separated CD8^+ T cells and non-CD8^+ T cells were used (REAlease® CD8 MicroBead Kit; Miltenyi Biotech). Then, CD8^+ T cells were treated with a GSK3 inhibitor (6-Bromoindirubin-3′-oxime; BIO; Sigma-Aldrich), at 3 μM, or an equivalent concentration of dimethyl sulfoxide (DMSO) vehicle control, in complete medium, for 12 hs at 37° C., 5% CO2. Non-CD8 cells were left resting during this time in complete medium. CD8^+ T cells were washed with complete medium and stimulated with the peptide pool in presence of non-CD8 T cells.
# (§3) In some experiments, cells were culture in RPMI medium without glucose (MP Biomedicals). CD8^+ T cell proliferation was evaluated by CFSE dilution (at 1 μM, Thermo Fisher Scientific). In additional experiments, reprogrammed CD8^+ T cells were stimulated with IL-7 or IL-15 (both at 10 ng/mL; R&D) and cultured for 6 days. In all the cases, cells were cultured at a density of 2×10^6 cells/mL.
# (§4) After cultures, cells were stained with the LIVE/DEAD Fixable Aqua Dead Cell Stain kit (Thermo Fisher Scientific), with anti-CD3 Alexa Fluor 700 or APC efluor 780 and anti-CD8 PE Texas Red antibodies, accordingly. […] In some experiments, cells were stained with APC-conjugated dextramers (Immudex), incubated for 15 minutes at room temperature. Additional surface staining panels included anti-HLA-DR Superbright 780, anti-CD38 Superbright 600, anti-PD-1 BV421, anti-LAG-3 APC efluor 780, anti-TIM3 PE Cy7, and anti-TIGIT BV786 antibodies, or anti-CD122 PE and anti-CD215 FITC antibodies. The BD Transcription Factor Buffer Set kit (BD Biosciences) was used for cell fixation and permeabilization. […] Cell acquisition was performed using LSR II or ARIA III flow cytometers (both from BD Biosciences), and data were analyzed with FlowJo v.10 software (BD Biosciences).
# (§5) The inventors explored GSK3 inhibitors to expand the array of molecules that could be used for CD8^+ T cell reprogramming. They implemented a screening approach that combined the evaluation of cytokine polyfunctionality of CD8^+ T cells (IFN-γ+TNFα+) vs the activation of mTORC1 and mTORC2 pathways (pS6+pAKT+) upon treatment with the GSK3 inhibitors and subsequent polyclonal stimulation.
# GSK3 = settings: cited from earlier work
# [1] = system: mTORC1 and mTORC2 pathways; assay: Screening of GSK3 inhibitors: phospho-S6 / phospho-AKT staining (activation of mTORC1 and mTORC2 pathways); type: cell-based, human; settings: FIG. 12A, in words
# Method: as §1, §2, §3, §4, §5
smiles,measurement,setting,value
"O=C1Nc2cc(Br)ccc2/C1=C1/Nc2ccccc2/C1=N\O [BIO, 6-bromoindirubin-3′-oxime]",IFN-γ+TNF-α+ cells (polyfunctionality) relative to vehicle control,human CD8+ T cells,promoted
same,beta-catenin phosphorylation,"GSK3; Meijer L et al., 2003",reduces
same,phosphorylation on Tyr276/216 GSK3a/p activation site,"GSK3; Meijer L et al., 2003",inhibits
same,Wnt/β-catenin/TCF-1 pathway,GSK3; reference 42,induce the activation
same,frequency of pS6+pAKT+ cells / activation of mTORC pathway,[1],lower frequency
